The text below walks through data of US7115596B2, “Thiazole compounds as integrin receptor antagonists derivatives” (Pharmacia Corporation, priority 2002, dated 2006).

Counter-ions that a name gives are not always drawn.

One data set can be described thus: Plasma level upon oral dosing (AUC-PO) in rat. The format is in vivo. The following applies: per dose, Table 1.
Regarding `O=C(O)C[C@H](Cc1csc(CCCCNc2cc(N3CCOCC3)ccn2)n1)c1ccc2c(c1)OCO2`, the “Rat AUC/Dose” value turned out to be 0.0634 ug-/m/L/mg/Kg.
For `O=C(O)CC(Cc1csc(CCCc2ccc3c(n2)NCCC3)n1)c1ccc2c(c1)OCO2` (stereo not drawn) [drawing 98], the “Rat AUC/Dose” value came out at 6.81 ug-/m/L/mg/Kg.

The same data set, now with this note: per dose, second table.
As for `O=C(O)C[C@H](Cc1csc(CCCc2ccc3c(n2)NCCC3)n1)c1ccc2c(c1)OCO2` [Example 7, (3S)-3-(1,3-benzodioxol-5-yl)-4-{2-[3-(5,6,7,8-tetrahydro-1,8-naphthyridin-2-yl)propyl]-1,3-thiazol-4-yl}butanoic acid hydrochloride], the “Rat PK-AUC/dose” value is 8.7 ug-h/m/L/mg/Kg.
Consider `Cc1nc2cc(C(CC(=O)O)Cc3csc(CCCc4ccc5c(n4)NCCC5)n3)ccc2s1` (stereo not drawn) [Example 9, 3-(2-methyl-1,3-benzothiazol-5-yl)-4-{2-[3-(5,6,7,8-tetrahydro-1,8-naphthyridin-2-yl)propyl]-1,3-thiazol-4-yl}butanoic acid hydrochloride], for which the “Rat PK-AUC/dose” value stood at 2.5 ug-h/m/L/mg/Kg.
Same read-out and setting: for `COc1ccc(C(CC(=O)O)Cc2csc(CCCc3ccc4c(n3)NCCC4)n2)cc1F` (stereo not drawn) [Example 2, 3-(3-fluoro-4-methoxyphenyl)-4-{2-[3-(5,6,7,8-tetrahydro-1,8-naphthyridin-2-yl)propyl]-1,3-thiazol-4-yl}butanoic acid hydrochloride] the value was 1.8 ug-h/m/L/mg/Kg; for `O=C(O)CC(Cc1csc(CCCc2ccc3c(n2)NCCC3)n1)c1ccc2c(c1)OCO2` (stereo not drawn) [Example 6, 3-(1,3-benzodioxol-5-yl)-4-{2-[3-(5,6,7,8-tetrahydro-1,8-naphthyridin-2-yl)propyl]-1,3-thiazol-4-yl}butanoic acid hydrochloride], 6.8 ug-h/m/L/mg/Kg; for `COc1ccc(C(CC(=O)O)Cc2csc(CCCc3ccc4c(n3)NCCC4)n2)cn1` (stereo not drawn) [Example 13, 3-(6-Methoxypyridin-3-yl)-4-{2-[3-(5,6,7,8-tetrahydro-1,8-naphthyridin-2-yl)propyl]-1,3-thiazol-4-yl}butanoic acid hydrochloride], 1.6 ug-h/m/L/mg/Kg.
For `COc1cc(OC)cc(C(CC(=O)O)Cc2csc(CCCc3ccc4c(n3)NCCC4)n2)c1` (stereo not drawn) [Example 5, 3-(3,5-dimethoxyphenyl)-4-{2-[3-(5,6,7,8-tetrahydro-1,8-naphthyridin-2-yl)propyl]-1,3-thiazol-4-yl}butanoic acid hydrochloride], the “Rat PK-AUC/dose” value is on record as 2.2 ug-h/m/L/mg/Kg.
On to `O=C(O)CC(Cc1csc(CCCc2ccc3c(n2)NCCC3)n1)c1cnc(C2CC2)s1` (stereo not drawn) [Example 16, 3-(2-Cyclopropyl-1,3-thiazol-5-yl)-4-{2-[3-(5,6,7,8-tetrahydro-1,8-naphthyridin-2-yl)propyl]-1,3-thiazol-4-yl}butanoic acid hydrochloride], for which the “Rat PK-AUC/dose” value was determined as 1.7 ug-h/m/L/mg/Kg.
